The record followed here is patent US20110033488A1, “AGENTS AND METHODS FOR TREATMENT OF ANXIETY DISORDERS” (Yeda Research and Development Co. Ltd., priority 2008, published 2011).

Peptide text beside a SMILES is read from it.

The subject of data set [1] is ICAM-1 on choroid plexus cells (ECACC # 00031626). The data set can be described thus: ICAM-1 expression on choroid plexus cell line. Type of data set: cell-based, rat. Particulars: for ICAM-1 expression: 24 hrs. The method, then:
(iv) Choroid Plexus endothelial cell culture. RCP cells (ECACC # 00031626, a kind gift from Dr. A. Chen, Weizmann Institute) (Battle et al., 2000) were cultured at 37° C. under 95% air/5% CO2 in DMEM medium containing 10% FCS, 100 U/ml penicillin, […], 1% insulin-transferrin-selenium mix (Sigma-Aldrich) and 0.1% Epidermal Growth Factor ([…]). The culture medium was changed every 2 days.
CPx cultures grown on cover slips were washed with PBS, and fixed as described above. The fixed cells were then treated with a blocking solution containing 10% FCS, 2% bovine serum albumin, 1% glycine, and 0.1% Triton X-100 (Sigma-Aldrich), and stained with hamster anti-mouse CD54 (ICAM-1) (Chemicon).

The test system of a further data set is mice. The note with it: one immunization with 100 μg peptide, without pertussis toxin.
[2] abbreviates: all concentrations tested (1-100 ng/ml).

On to TNF-α, for which the ICAM-1 expression result in data set [1] (setting [2]) was “significant elevation”.
On to IL-6: cytokine, for which the ICAM-1 expression result in data set [1] (setting [2]) is “no effect”.
For IFN-γ: cytokine, the ICAM-1 expression entry is “significant inhibition” in data set [1] (higher concentrations); “inactive” in data set [1] (lower concentrations (1 ng and 10 ng)).
With `C[C@]12C[C@H](O)[C@H]3[C@@H](CCC4=CC(=O)CC[C@@]43C)[C@@H]1CC[C@@H]2C(=O)CO` [corticosterone, reference compound], the “Concentration of peak ICAM-1 expression” value in data set [1] (24 hrs incubation) is 1 ng/mL. Further, the ICAM-1 expression result is given as “significantly inhibited” in data set [1] (higher doses 20 ng/ml and 50 ng/ml); “significantly elevated” in data set [1] (lower doses 1 ng/ml and 5 ng/ml).
As to `CSCC[C@H](N)C(=O)N[C@@H](CCC(=O)O)C(=O)N[C@H](C(=O)NCC(=O)N[C@@H](Cc1c[nH]c2ccccc12)C(=O)N[C@@H](Cc1ccc(O)cc1)C(=O)N[C@@H](CCCNC(=N)N)C(=O)N[C@@H](CO)C(=O)N1CCC[C@H]1C(=O)N[C@@H](Cc1ccccc1)C(=O)N[C@@H](CO)C(=O)N[C@@H](CCCNC(=N)N)C(=O)N[C@H](C(=O)N[C@H](C(=O)N[C@@H](Cc1c[nH]cn1)C(=O)N[C@@H](CC(C)C)C(=O)N[C@@H](Cc1ccc(O)cc1)C(=O)N[C@@H](CCCNC(=N)N)C(=O)N[C@@H](CC(N)=O)C(=O)NCC(=O)N[C@@H](CCCCN)C(=O)O)C(C)C)C(C)C)C(C)C` [pMOG35-55] (H-MEVGWYRSPFSRVVHLYRNGK-OH; N-terminus and C-terminus assumed), the “Induction of EAE” value in the data set with mice was “no EAE was induced”.

B1: IL-10: cytokine (protein, UniProt P22301 19-178, looked up)
Interleukin-10: SPGQGTQSENSCTHFPGNLPNMLRDLRDAFSRVKTFFQMKDQLDNLLLKESLLEDFKGYLGCQALSEMIQFYLEEVMPQAENQDPDIKAHVNSLGENLKTLRLRLRRCHRFLPCENKSKAVEQVKNAFNKLQEKGIYKAMSEFDIFINYIEAYMTMKIRN
Turning to B1, the ICAM-1 expression result in data set [1] (setting [2]) is reported as “significantly reduced”.
